Data as given in patent publication US11225642B2, “Method for producing renal progenitor cells” (KYOTO UNIVERSITY, priority 2013, dated 2022).

Tested on: OSR1-GFP & SIX2-tdTomato reporter human iPS cell line (4A6C3-10)
Test: SIX2-positive cell induction method 4, OSR1+SIX2+ cell rate by flow cytometer
Format: cell-based
Procedure: 4A6C3-10 was cultured at 37° C. in a 2% to 5% CO2 atmosphere to become 70% to 80% confluent on 10-cm dishes containing a primate ES medium (ReproCELL) supplemented with 500 U/ml penicillin/streptomycin (Invitrogen) and 5 ng/ml recombinant human basic fibroblast growth factor (bFGF, Wako) with the use of ICR-mouse-embryo (fetus 12.5 days old)-derived mouse embryonic fibroblasts (MEF) or SNL feeder cells (McMahon, A. P. and Bradley, A. (1990) Cell 62; 1073-1085) (these cells being previously treated with 15.5 μg/ml mitomycin (Kyowa Hakko Kirin Co., Ltd.) for 2 to 3 hours and seeded at a density of 2×10^5 cells/6-cm dish) as feeder cells. The 10-cm plates containing the cells were rinsed with PBS and treated with a CTK solution (PBS containing 0.25% Trypsin (Invitrogen), 0.1% Collagenase IV (Invitrogen), 20% KnockOut SR (KSR, Invitrogen), and 1 mM CaCl2) at 37° C. for 4 minutes. The CTK solution was removed by rinsing with PBS. Then, the medium was exchanged with DMEM/F12+Glutamax (Invitrogen) containing 0.1 mM MEM NEAA (Invitrogen), 1000 U/ml penicillin/streptomycin, 0.55 mM 2-mercaptoethanol (Invitrogen), and 20% KSR. Subsequently, the cells were scraped using a cell scraper and seeded on 6-cm plates coated with 0.2% gelatin to remove feeder cells. One hour later, the cells were washed with DMEM/F12+Glutamax [stage-1 medium] containing 500 U/ml penicillin/streptomycin and 2% FBS (HyClone), transferred to ultra-low attachment dishes (Corning 3471) having a stage-1 medium containing 100 ng/ml recombinant human/mouse/rat Activin A (R&D Systems) and 1 μM CHIR99021, and cultured at 37° C. in a 5% CO2 atmosphere for 2 days.
In order to differentiate into the intermediate mesoderm, the cell mass (embryoid body (EB)) obtained at stage 1 was transferred to a 24-well plate coated with Synthemax II (Corning), the medium was exchanged with DMEM/F12+Glutamax containing 0.1 mM MEM NEAA, 500 U/ml penicillin/streptomycin, 0.55 mM 2-mercaptoethanol, 10% KSR, 100 ng/ml BMP7 (recombinant human BMP7, R&D Systems), and 1 μM CHIR99021, and the cells were cultured at 37° C. in a 5% CO2 atmosphere for 3 days.
After stage 2, the medium was exchanged with DMEM/F12+Glutamax containing 0.1 mM MEM NEAA, 500 U/ml penicillin/streptomycin, 0.55 mM 2-mercaptoethanol, 10% KSR, 1 μM TTNPB (Sigma T3757), and 5 ng/ml TGFβ1 (Peprotech), followed by culturing at 37° C. in a 5% CO2 atmosphere for 5 days. The medium was exchanged with a medium having the same conditions two days after the start of culture (i.e., day 8 from the start of stage 1 (day 1)).
After stage 3, the medium was exchanged with DMEM/F12+Glutamax containing 0.1 mM MEM NEAA, 500 U/ml penicillin/streptomycin, 0.55 mM 2-mercaptoethanol, 10% KSR, 5 ng/ml TGFβ1, and 0.5 μM DMH1 (Tocris), followed by culturing at 37° C. in a 5% CO2 atmosphere for 17 days (i.e., culturing for 28 days in total from the start of stage 1 (day 1); FIG. 3A). In this case, the medium was exchanged every 3 days with a medium having the same conditions. […] In addition, the OSR1^+SIX2^+ cell rate reached the maximum level on day 25 of culture and then it was confirmed to be maintained until day 28 of culture (FIG. 3D).
Induction of OSR1^+SIX2^+ cells from the 4A6C3-10 iPS cell line was examined using different combinations of TGFβ signaling activators and BMP inhibitors. Specifically, induction of OSR1^+SIX2^+ cells from 4A6C3-10 was examined under conditions 1) to 10) described below. […]

TGFβ1: TGFβ signaling activator protein (Peprotech)
induction of OSR1+SIX2+ cells (Example 8, comparison of combinations of TGFβ signaling activators and BMP inhibitors at stage 4 (FIG. 4)): effective | OSR1-positive and SIX2-positive (OSR1+SIX2+) cell rate (induction method 4, stage 4 medium with 5 ng/ml TGFβ1 and 0.5 μM DMH1, day 28 of culture): 32.8%
